EPA's ToxValDB 9.5 (doi:10.2903/j.efsa.2008.116r)

Legend:
Mus musculus = settings: acute; oral; mortality
Tagia sp. = settings: acute; duration: 14 days; mortality
Oncorhynchus mykiss = settings: chronic/long-term; duration: 21 days; growth
Apis mellifera = settings: acute; duration: 48 hours; dermal; mortality
Coturnix japonica = settings: acute, oral, mortality
Daphnia magna = settings: chronic/long-term; duration: 21 days; reproduction
Coturnix coturnix = settings: reproduction developmental
Canidae = settings: oral, Dog Other, clinical chemistry
Lepomis macrochirus = settings: acute; duration: 96 hours; mortality
Typhlodromus pyri = assay: LR50; higher = less toxic; settings: not reported; mortality
Aphidius rhopalosiphi = assay: LR50; higher = less toxic; settings: not reported; mortality

In the case of `COc1cc(OC)nc(NC(=O)NS(=O)(=O)N(C)S(C)(=O)=O)n1` [Amidosulfuron], the LD50 (Mus musculus) is reported as at least 5000 mg/kg-day, the LC50 (Tagia sp.) is reported as over 1000 mg/kg and the NOEC (Oncorhynchus mykiss) is reported as 6.41 mg/L. For the same compound, the NOEC (Rattus norvegicus; chronic, mortality) was 400 mg/kg-day, the NOAEL (Rattus norvegicus; reproduction developmental, body weight) was 22.5 mg/kg-day and the NOEC (Rattus norvegicus; reproduction developmental, organ weight) was 22.5 mg/kg-day. The LD50 (Apis mellifera) was over 100 µg/piece, the LC50 (Coturnix japonica; diet) was over 1170 mg/kg-day and the LD50 (Coturnix japonica) was over 2000 mg/kg-day. The NOEC (Daphnia magna) was 1 mg/L, the NOEC (Coturnix coturnix) was 1000 mg/kg-day and the NOAEL (Canidae; chronic, duration: 52 weeks) was 144 mg/kg-day. For the same compound, the NOAEL (Canidae; subchronic, duration: 3 months) was 144 mg/kg-day, the LC50 (Lepomis macrochirus) was over 100 µg/mL and the LR50 (Typhlodromus pyri) was over 45 g/ha. It also gave an LR50 (Aphidius rhopalosiphi) of over 45 g/ha.
